Patent publication US9790228B2, “Heterocyclic kinase inhibitors” (Intellikine LLC, priority 2008, dated 2017)

Legend:
p110β/p85α = p110β/p85α (Homo sapiens, UniProt P42338); assay: PI3K β inhibition assay (TLC lipid kinase or HTRF); type: biochemical; details: read-out: PI3K β IC50
How it was run: (§1)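 IC50 from TLC lipid kinase assay (25 mM HEPES pH 7.4, 10 mM MgCl2, 100 μg/ml phosphatidylinositol, 10 or 100 μM γ-32P-ATP, 5 min RT, phosphorimager) at 10–12 two-fold dilutions, or HTRF (10 μM PIP2, 10 μM ATP, 1 h RT) measuring PIP3 by TR-FRET; 2% DMSO final.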

p110α/p85α = p110α/p85α (Homo sapiens (Human), UniProt P42336); assay: PI3K α inhibition assay (TLC lipid kinase or HTRF); type: biochemical
p110α/p85α, sequence (P42336 whole entry): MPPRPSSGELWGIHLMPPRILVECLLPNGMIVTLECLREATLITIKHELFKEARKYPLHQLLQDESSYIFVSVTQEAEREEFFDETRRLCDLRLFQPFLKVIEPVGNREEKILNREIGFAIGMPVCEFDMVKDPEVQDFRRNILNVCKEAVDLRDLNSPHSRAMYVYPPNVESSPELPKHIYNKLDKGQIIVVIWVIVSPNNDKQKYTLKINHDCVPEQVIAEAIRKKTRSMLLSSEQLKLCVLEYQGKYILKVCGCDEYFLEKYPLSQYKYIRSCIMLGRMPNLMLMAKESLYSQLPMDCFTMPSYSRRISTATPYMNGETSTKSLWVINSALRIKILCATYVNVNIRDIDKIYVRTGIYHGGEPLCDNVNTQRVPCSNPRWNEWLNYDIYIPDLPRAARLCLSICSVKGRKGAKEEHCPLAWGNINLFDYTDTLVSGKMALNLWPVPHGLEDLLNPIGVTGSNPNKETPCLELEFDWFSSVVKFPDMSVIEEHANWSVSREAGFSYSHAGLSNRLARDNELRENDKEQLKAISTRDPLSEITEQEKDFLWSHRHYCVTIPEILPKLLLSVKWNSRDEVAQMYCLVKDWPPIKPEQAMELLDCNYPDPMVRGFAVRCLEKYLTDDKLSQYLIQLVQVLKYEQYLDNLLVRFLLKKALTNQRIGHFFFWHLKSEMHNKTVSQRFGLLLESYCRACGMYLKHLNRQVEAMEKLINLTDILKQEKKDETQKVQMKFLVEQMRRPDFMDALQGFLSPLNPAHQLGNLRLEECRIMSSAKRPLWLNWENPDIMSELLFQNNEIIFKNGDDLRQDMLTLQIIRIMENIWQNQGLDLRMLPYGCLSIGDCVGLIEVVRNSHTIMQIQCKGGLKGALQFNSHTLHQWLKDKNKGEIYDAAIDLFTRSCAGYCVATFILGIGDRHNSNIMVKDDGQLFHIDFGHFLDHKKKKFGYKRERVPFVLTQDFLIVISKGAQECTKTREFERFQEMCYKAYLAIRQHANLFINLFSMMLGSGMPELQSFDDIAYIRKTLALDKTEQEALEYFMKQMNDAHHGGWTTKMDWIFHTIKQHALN
p110α/p85α, sequence (P27986 whole entry partner): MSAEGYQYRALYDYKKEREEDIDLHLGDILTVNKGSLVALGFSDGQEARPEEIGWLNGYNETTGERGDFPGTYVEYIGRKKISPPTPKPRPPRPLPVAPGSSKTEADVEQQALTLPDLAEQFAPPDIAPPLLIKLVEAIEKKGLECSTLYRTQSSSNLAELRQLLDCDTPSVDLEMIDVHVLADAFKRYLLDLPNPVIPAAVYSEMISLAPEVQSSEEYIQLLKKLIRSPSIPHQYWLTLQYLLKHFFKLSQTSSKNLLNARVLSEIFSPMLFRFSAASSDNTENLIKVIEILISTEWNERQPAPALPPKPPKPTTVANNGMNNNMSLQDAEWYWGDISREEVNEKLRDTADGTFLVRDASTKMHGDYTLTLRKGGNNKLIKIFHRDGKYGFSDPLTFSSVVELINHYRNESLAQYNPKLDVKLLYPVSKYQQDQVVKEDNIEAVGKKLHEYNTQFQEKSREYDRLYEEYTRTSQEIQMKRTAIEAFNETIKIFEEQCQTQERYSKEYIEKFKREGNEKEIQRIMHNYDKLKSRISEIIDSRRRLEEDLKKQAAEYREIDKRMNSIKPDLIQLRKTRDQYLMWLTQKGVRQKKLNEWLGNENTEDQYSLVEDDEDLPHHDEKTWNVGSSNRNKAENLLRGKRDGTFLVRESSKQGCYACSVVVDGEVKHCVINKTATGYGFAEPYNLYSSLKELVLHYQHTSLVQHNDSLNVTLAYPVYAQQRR
How it was run: as §1

p110γ = p110γ (Homo sapiens (Human), UniProt P48736); assay: PI3K γ inhibition assay (TLC lipid kinase or HTRF); type: biochemical
p110γ, sequence (P48736 whole entry): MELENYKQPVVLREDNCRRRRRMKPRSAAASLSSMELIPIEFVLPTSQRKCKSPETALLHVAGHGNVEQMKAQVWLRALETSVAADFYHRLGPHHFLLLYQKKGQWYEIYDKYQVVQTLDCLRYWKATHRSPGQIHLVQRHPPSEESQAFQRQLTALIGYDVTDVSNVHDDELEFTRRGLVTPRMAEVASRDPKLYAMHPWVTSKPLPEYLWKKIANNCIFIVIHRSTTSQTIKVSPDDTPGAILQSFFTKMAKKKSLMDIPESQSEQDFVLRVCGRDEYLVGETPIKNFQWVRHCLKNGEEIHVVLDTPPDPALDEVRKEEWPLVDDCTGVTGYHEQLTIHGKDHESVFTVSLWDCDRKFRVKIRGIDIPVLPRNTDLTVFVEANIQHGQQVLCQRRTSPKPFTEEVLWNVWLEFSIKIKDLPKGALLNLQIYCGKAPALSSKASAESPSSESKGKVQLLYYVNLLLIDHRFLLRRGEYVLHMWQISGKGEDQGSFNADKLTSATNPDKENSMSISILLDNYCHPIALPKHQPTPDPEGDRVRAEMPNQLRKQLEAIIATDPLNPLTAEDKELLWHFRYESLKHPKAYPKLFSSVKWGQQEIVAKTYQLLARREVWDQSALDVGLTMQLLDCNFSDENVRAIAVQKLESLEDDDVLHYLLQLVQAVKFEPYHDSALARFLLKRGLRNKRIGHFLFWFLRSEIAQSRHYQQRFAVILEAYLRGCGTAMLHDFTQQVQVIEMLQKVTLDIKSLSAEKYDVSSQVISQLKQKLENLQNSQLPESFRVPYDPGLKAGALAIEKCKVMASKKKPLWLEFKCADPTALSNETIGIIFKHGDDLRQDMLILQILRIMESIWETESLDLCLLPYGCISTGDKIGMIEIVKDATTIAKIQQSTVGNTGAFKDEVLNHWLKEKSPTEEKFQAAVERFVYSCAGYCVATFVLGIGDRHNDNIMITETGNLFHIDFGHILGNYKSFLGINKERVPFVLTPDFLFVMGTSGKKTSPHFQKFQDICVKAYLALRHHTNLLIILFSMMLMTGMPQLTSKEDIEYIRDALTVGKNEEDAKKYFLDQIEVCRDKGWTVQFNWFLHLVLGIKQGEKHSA
How it was run: as §1

p110δ/p85α = p110δ/p85α (Homo sapiens (Human), UniProt O00329); assay: PI3K δ inhibition assay (TLC lipid kinase or HTRF); type: biochemical
p110δ/p85α, sequence (O00329 whole entry): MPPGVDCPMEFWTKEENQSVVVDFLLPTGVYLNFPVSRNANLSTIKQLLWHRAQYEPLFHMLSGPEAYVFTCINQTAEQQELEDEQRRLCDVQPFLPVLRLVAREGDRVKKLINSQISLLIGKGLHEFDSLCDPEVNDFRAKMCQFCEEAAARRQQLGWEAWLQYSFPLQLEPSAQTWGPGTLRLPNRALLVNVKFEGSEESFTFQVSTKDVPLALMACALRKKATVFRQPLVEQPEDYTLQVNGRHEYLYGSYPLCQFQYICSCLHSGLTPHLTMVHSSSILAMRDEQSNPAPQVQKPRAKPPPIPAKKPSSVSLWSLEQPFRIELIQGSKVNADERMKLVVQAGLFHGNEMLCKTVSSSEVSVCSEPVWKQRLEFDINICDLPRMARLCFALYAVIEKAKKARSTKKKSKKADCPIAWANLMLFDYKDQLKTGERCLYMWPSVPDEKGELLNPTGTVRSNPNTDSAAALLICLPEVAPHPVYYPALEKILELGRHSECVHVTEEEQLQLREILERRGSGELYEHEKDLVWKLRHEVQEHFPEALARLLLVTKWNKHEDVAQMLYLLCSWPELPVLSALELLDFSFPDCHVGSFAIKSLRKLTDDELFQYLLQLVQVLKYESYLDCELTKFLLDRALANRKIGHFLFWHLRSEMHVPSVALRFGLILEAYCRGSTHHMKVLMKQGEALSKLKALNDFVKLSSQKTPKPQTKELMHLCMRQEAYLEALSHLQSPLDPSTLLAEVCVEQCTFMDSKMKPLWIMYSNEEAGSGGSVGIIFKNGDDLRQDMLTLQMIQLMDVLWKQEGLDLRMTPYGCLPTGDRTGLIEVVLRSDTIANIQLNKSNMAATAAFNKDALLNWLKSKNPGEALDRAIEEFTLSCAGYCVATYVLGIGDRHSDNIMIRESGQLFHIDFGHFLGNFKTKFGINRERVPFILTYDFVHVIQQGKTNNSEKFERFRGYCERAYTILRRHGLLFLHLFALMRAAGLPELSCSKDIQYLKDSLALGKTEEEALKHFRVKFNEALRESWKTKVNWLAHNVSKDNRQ
p110δ/p85α, sequence (P27986 whole entry partner): as the sequence (P27986 whole entry partner) above
How it was run: as §1

Balb/c splenic B cells = assay: B cell activation and proliferation assay (Alamar Blue); type: cell-based, mouse; details: Mus musculus, B-cell
How it was run: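 Purified Balb/c splenic B cells, 50,000/well, pretreated with compound 30 min (0.2% DMSO), then stimulated with 10 ug/ml LPS or 5 ug/ml anti-IgM F(ab′)2 plus 2 ng/ml IL4 (cocktail concentrations) for 72 h at 37 °C. Alamar Blue 5 h, fluorescence 560/590 nm; IC50/EC50 calculated.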

p110β/p85α, sequence (P42338 whole entry, looked up): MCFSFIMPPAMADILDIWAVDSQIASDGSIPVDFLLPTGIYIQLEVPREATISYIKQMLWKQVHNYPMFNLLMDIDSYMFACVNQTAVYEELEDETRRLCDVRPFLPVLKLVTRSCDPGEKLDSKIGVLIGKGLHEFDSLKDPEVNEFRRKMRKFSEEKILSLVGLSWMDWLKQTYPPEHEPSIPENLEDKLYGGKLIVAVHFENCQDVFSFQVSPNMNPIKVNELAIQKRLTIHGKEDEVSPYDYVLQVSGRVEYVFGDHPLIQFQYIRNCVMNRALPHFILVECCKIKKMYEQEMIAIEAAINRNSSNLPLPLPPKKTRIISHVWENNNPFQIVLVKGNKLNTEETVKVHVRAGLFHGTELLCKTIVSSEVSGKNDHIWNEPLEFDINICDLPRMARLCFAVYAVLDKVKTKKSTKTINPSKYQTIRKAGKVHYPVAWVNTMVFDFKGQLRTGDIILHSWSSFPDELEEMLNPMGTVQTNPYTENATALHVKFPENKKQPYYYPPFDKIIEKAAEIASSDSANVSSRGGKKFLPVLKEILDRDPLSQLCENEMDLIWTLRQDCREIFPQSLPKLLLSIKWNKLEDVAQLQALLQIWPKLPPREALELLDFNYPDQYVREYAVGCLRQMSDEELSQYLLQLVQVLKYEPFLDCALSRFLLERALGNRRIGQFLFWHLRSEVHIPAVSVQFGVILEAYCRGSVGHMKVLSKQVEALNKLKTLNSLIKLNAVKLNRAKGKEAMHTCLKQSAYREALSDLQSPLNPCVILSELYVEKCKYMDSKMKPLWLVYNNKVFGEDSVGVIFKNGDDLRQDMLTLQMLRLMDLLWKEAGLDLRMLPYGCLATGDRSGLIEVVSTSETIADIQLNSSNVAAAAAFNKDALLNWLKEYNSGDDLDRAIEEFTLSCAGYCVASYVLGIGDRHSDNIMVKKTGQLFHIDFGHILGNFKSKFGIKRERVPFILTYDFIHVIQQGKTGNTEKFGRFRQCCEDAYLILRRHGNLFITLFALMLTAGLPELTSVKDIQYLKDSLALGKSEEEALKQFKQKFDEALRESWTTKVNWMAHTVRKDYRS

| SMILES | IC50 (p110β/p85α) [nM] | IC50 (p110α/p85α) [nM] | IC50 (p110γ) [nM] | IC50 (p110δ/p85α) [nM] | EC50 (Balb/c splenic B cells) [nM] |
| --- | --- | --- | --- | --- | --- |
| CC(C)Oc1nc2ccccc2cc1Cn1nc(-c2cc(O)cc(F)c2)c2c(N)ncnc21 [Compound 156] | > 1000 | > 1000 | 100 to 1000 | < 100 | 100 to 1000 |
| Nc1ncc2cc(-c3nn(Cc4cc5ccccc5nc4-c4ccccc4F)c4ncnc(N)c34)ccc2n1 [Compound 135] | > 1000 | 100 to 1000 | < 100 | < 100 | < 100 |
| Cc1ccccc1-c1nc2ccccc2nc1Cn1nc(-c2cc(O)cc(F)c2)c2c(N)ncnc21 [Compound 107] | > 1000 | > 1000 | > 1000 | < 100 | < 100 |
| CC(Nc1ncnc2[nH]cnc12)c1cc2ccccc2nc1N1CCN(C)CC1 (centres unmarked) [Compound 82] | > 1000 | > 1000 | > 1000 | < 100 | < 100 |
| Cc1ccccc1-c1nc2ccccc2cc1Cn1nc(-c2ccc3nc(N)ccc3c2)c2c(N)ncnc21 [Compound 131] | > 1000 | 100 to 1000 | < 100 | < 100 | 100 to 1000 |
| CC(=O)Nc1nc2ccc(-c3nn(Cc4cc5ccccc5nc4-n4cnc(C)c4)c4ncnc(N)c34)cc2s1 [Compound 171] | > 1000 | 100 to 1000 | < 100 | < 100 | < 100 |
| Cc1ccccc1-c1nc2ccccc2cc1Cn1nc(-c2cc(O)cc(F)c2)c2c(N)ncnc21 [Compound 4] | > 1000 | > 1000 | < 100 | < 100 | < 100 |
| CCN(CC)c1nc2ccccc2cc1Cn1nc(-c2cc(O)cc(F)c2)c2c(N)ncnc21 [Compound 68] | 100 to 1000 | > 1000 | 100 to 1000 | < 100 | < 100 |
| Cc1ccccc1-c1nc2ccccc2cc1Cn1nc(-c2ccc3oc(N)nc3c2)c2c(N)ncnc21 [Compound 133] | > 1000 | > 1000 | < 100 | < 100 | 100 to 1000 |
| Nc1ncc(-c2nn(Cc3cc4ccccc4nc3-c3ccccc3F)c3nccc(N)c23)cn1 [Compound 158] | > 1000 | > 1000 | > 1000 | > 1000 | > 1000 |
| Cc1ccccc1-c1nc2c(C)cccc2cc1Cn1nc(-c2cc(O)cc(F)c2)c2c(N)ncnc21 [Compound 8] | > 1000 | > 1000 | < 100 | < 100 | < 100 |
| Cc1ccncc1-c1nc2ccccc2cc1Cn1nc(-c2cc(O)cc(F)c2)c2c(N)ncnc21 [Compound 56] | > 1000 | > 1000 | < 100 | < 100 | < 100 |
| Nc1ncnc2ccc(-c3nn(Cc4cc5ccccc5nc4-c4ccccc4)c4ncnc(N)c34)cc12 [Compound 146] | > 1000 | > 1000 | < 100 | < 100 | 100 to 1000 |
| Nc1ncnc2c1c(-c1cc(O)cc(F)c1)nn2Cc1cc2ccccc2nc1-c1ccccc1 [Compound 57] | 100 to 1000 | 100 to 1000 | < 100 | < 100 | < 100 |
| Cc1ccccc1-c1nc2ccccc2cc1Cn1nc(-c2ccc3ncnc(N)c3c2)c2c(N)ncnc21 [Compound 134] | > 1000 | > 1000 | < 100 | < 100 | 100 to 1000 |
| Nc1nc2cc(-c3nn(Cc4cc5ccccc5nc4-c4ccccc4F)c4ncnc(N)c34)ccc2[nH]1 [Compound 152] | > 1000 | 100 to 1000 | < 100 | < 100 | 100 to 1000 |
| CC(C)N(C)c1nc2ccccc2cc1Cn1nc(-c2cc(O)cc(F)c2)c2c(N)ncnc21 [Compound 52] | 100 to 1000 | 100 to 1000 | 100 to 1000 | < 100 | < 100 |
| CN1CCN(c2nc3ccccc3cc2Cn2nc(-c3ccc4cc(N)sc4c3)c3c(N)ccnc32)CC1 [Compound 80] | < 100 | < 100 | < 100 | < 100 | < 100 |
| Nc1nc2cc(-c3nn(Cc4cc5ccccc5nc4-c4ccccc4F)c4ncnc(N)c34)ccc2o1 [Compound 137] | > 1000 | > 1000 | < 100 | < 100 | 100 to 1000 |
| Nc1nc2ccc(-c3nn(Cc4cc5ccccc5nc4-c4ccccc4C(F)(F)F)c4ncnc(N)c34)cc2[nH]1 [Compound 181] | > 1000 | > 1000 | < 100 | < 100 | 100 to 1000 |
| CC(=O)Nc1nc2ccc(-c3nn(Cc4cc5ccccc5nc4N(C)C)c4ncnc(N)c34)cc2s1 [Compound 130] | < 100 | < 100 | < 100 | < 100 | < 100 |

Second part, led by results:

| IC50 (p110β/p85α) [nM] | IC50 (p110α/p85α) [nM] | IC50 (p110γ) [nM] | IC50 (p110δ/p85α) [nM] | SMILES | EC50 (Balb/c splenic B cells) [nM] |
| --- | --- | --- | --- | --- | --- |
| > 1000 | > 1000 | 100 to 1000 | < 100 | Nc1ncnc2c1c(-c1cc(O)cc(F)c1)nn2Cc1cc2ccccc2nc1N1CCOCC1 [Compound 63] | < 100 |
| > 1000 | > 1000 | < 100 | < 100 | CC(C)N(C)c1nc2ccccc2cc1Cn1nc(-c2ccc3nc(N)[nH]c3c2)c2c(N)ncnc21 [Compound 184] | 100 to 1000 |
| 100 to 1000 | > 1000 | > 1000 | < 100 | Nc1ncnc2c1c(-c1cc(O)cc(F)c1)nn2Cc1cc2ccccc2nc1CCN1CCCC1 [Compound 165] | < 100 |
| < 100 | 100 to 1000 | 100 to 1000 | < 100 | CC(=O)Nc1nc2ccc(-c3nn(Cc4cc5ccccc5nc4N4CCN(C)CC4)c4ncnc(N)c34)cc2s1 [Compound 70] | < 100 |
| 100 to 1000 | < 100 | < 100 | < 100 | Nc1nc2ccc(-c3nn(Cc4cc5ccccc5nc4CCN4CCCC4)c4ncnc(N)c34)cc2s1 [Compound 167] | < 100 |
| < 100 | < 100 | < 100 | < 100 | Nc1ncc2cc(-c3nn(Cc4cc5ccccc5nc4N4CCOCC4)c4ncnc(N)c34)ccc2n1 [Compound 139] | < 100 |
| 100 to 1000 | < 100 | < 100 | < 100 | Nc1ccc2cc(-c3nn(Cc4cc5ccccc5nc4N4CCOCC4)c4ncnc(N)c34)ccc2n1 [Compound 140] | < 100 |
| > 1000 | > 1000 | 100 to 1000 | < 100 | Nc1ncnc2c1c(-c1cc(O)cc(F)c1)nn2Cc1cc2ccccc2nc1Cl [Compound 54] | < 100 |
| > 1000 | > 1000 | > 1000 | 100 to 1000 | Nc1ncnc2c1c(-c1cnn(CCO)c1)nn2Cc1cc2ccccc2nc1-c1ccccc1 [Compound 179] | 100 to 1000 |
| > 1000 | > 1000 | > 1000 | 100 to 1000 | Nc1ncnc2c1c(-c1cc(O)cc(F)c1)nn2Cc1cc2c(nc1-c1ccccc1F)CCC2 [Compound 101] | 100 to 1000 |
| > 1000 | < 100 | < 100 | < 100 | Nc1nc2ccc(-c3nn(Cc4cc5ccccc5nc4N4CCCC4)c4ncnc(N)c34)cc2s1 [Compound 79] | < 100 |
| > 1000 | 100 to 1000 | 100 to 1000 | < 100 | CC(=O)Nc1nc2ccc(-c3nn(Cc4cc5ccccc5nc4CCN4CCCC4)c4ncnc(N)c34)cc2s1 [Compound 166] | < 100 |
| > 1000 | > 1000 | 100 to 1000 | < 100 | Nc1ncnc2c1c(-c1cc(O)cc(F)c1)nn2Cc1cc2ccccc2nc1-c1cccnc1 [Compound 55] | < 100 |
| 100 to 1000 | > 1000 | > 1000 | < 100 | CN1CCN(c2nc3ccccc3cc2Cn2nc(-c3cnc4[nH]ccc4c3)c3c(N)ncnc32)CC1 [Compound 74] | < 100 |
| > 1000 | 100 to 1000 | < 100 | < 100 | Nc1ncc2cc(-c3nn(Cc4cc5ccccc5nc4-c4ccccc4)c4ncnc(N)c34)ccc2n1 [Compound 143] | < 100 |
| > 1000 | > 1000 | > 1000 | < 100 | Nc1ncnc2c1c(-c1ccc3cn[nH]c3c1)nn2CC1=Cc2ccccc2NC1N1CCCC1 (centres unmarked) [Compound 81] | 100 to 1000 |
| > 1000 | > 1000 | 100 to 1000 | < 100 | Nc1ncnc2c1c(-c1cccc(O)c1)nn2Cc1nc2ccccc2nc1N1CCCC1 [Compound 105] | 100 to 1000 |
| > 1000 | > 1000 | > 1000 | < 100 | Cc1ccncc1-c1nc2ccccc2cc1Cn1nc(-c2cccc(O)c2)c2c(N)ncnc21 [Compound 78] | 100 to 1000 |
| > 1000 | 100 to 1000 | < 100 | < 100 | Nc1nc2cc(-c3nn(Cc4cc5ccccc5nc4N4CCOCC4)c4ncnc(N)c34)ccc2o1 [Compound 141] | < 100 |
